{"source": "the supplement of paper PMC11208160", "experiment": "recombinant barcode read abundance after kanamycin selection (control-corrected) (log10(CPM+1)); higher = more efficient recombination; sequences stand for … in AGTGCAGAGAAAATCGGCCAGTTTTCTCTGCCTGCAGTCCGCATGCCGT…AGATTTATGCAGCGGACTGCCTTTCTCCCAAAGTGATAAACCGGACAGTATCATGGACCGGTTTTCCCGGTAATCCGTATTTGCAAGGTTGGTTTCACT; site = the 11-nt target", "summary_of_the_method": "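Each value is log10(CPM+1). It describes recombination efficiency, taken as averaged, control-corrected counts per million of barcodes at recombinant junctions. The pooled E. coli library paired targets with IS621 bridge RNA target-binding loops, was co-electroporated with a donor plasmid, and was plated twice on chloramphenicol/ampicillin LB agar (control) and twice on chloramphenicol/ampicillin/kanamycin containing 0.1 mM IPTG.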"}
{"sequence": "ATACGTTCTTGGGTTCTAACCTGTTGCAT (site ATACGTTCTAT)", "values": [{"measurement": "recombinant barcode read abundance (log10)", "value": 1.12}]}
{"sequence": "ATACGTTCTTGGGTTCTAACCTGTTGCAT (site CAGGTCCCTCG)", "values": [{"measurement": "recombinant barcode read abundance (log10)", "value": 0.354}]}
{"sequence": "ATACTAACTTGGGTTCTAACCTGTTGCCT (site AAACTAACTAG)", "values": [{"measurement": "recombinant barcode read abundance (log10)", "value": 0.0718}]}
{"sequence": "ATACTAACTTGGGTTCTAACCTGTTGCCT (site ACACTAACTAG)", "values": [{"measurement": "recombinant barcode read abundance (log10)", "value": 0.477}]}
{"sequence": "ATACTAACTTGGGTTCTAACCTGTTGCCT (site AGACTAACTAG)", "values": [{"measurement": "recombinant barcode read abundance (log10)", "value": 0.0472}]}
{"sequence": "ATACTAACTTGGGTTCTAACCTGTTGCCT (site ATACTAACTAG)", "values": [{"measurement": "recombinant barcode read abundance (log10)", "value": 1.7}]}
{"sequence": "ATAGAGTCTTGGGTTCTAACCTGTTGCTT (site AGAGAGTCTAA)", "values": [{"measurement": "recombinant barcode read abundance (log10)", "value": 0.352}]}
{"sequence": "ATAGAGTCTTGGGTTCTAACCTGTTGCTT (site ATAGAGTCTAA)", "values": [{"measurement": "recombinant barcode read abundance (log10)", "value": 2.52}]}
{"sequence": "ATAGCAACTTGGGTTCTAACCTGTTGCCT (site ATAGCAACTAG)", "values": [{"measurement": "recombinant barcode read abundance (log10)", "value": 0.64}]}
{"sequence": "ATAGCAACTTGGGTTCTAACCTGTTGCCT (site ATAGCCACTAG)", "values": [{"measurement": "recombinant barcode read abundance (log10)", "value": 0.11}]}
{"sequence": "ATAGCAACTTGGGTTCTAACCTGTTGCCT (site ATAGCGACTAG)", "values": [{"measurement": "recombinant barcode read abundance (log10)", "value": 0.0185}]}
{"sequence": "ATAGCAACTTGGGTTCTAACCTGTTGCCT (site ATAGCTACTAG)", "values": [{"measurement": "recombinant barcode read abundance (log10)", "value": 0.0705}]}
{"sequence": "ATAGCTACTTGGGTTCTAACCTGTTGCCT (site ATAGCAACTAG)", "values": [{"measurement": "recombinant barcode read abundance (log10)", "value": 0.142}]}
{"sequence": "ATAGCTACTTGGGTTCTAACCTGTTGCCT (site ATAGCCACTAG)", "values": [{"measurement": "recombinant barcode read abundance (log10)", "value": 0.248}]}
{"sequence": "ATAGCTACTTGGGTTCTAACCTGTTGCCT (site ATAGCGACTAG)", "values": [{"measurement": "recombinant barcode read abundance (log10)", "value": 0.0534}]}
{"sequence": "ATAGCTACTTGGGTTCTAACCTGTTGCCT (site ATAGCTACTAG)", "values": [{"measurement": "recombinant barcode read abundance (log10)", "value": 1.2}]}
{"sequence": "ATAGGACCTTGGGTTCTAACCTGTTGCCG (site ATAGGACCTCG)", "values": [{"measurement": "recombinant barcode read abundance (log10)", "value": 2.36}]}
{"sequence": "ATAGGACCTTGGGTTCTAACCTGTTGCCG (site ATAGGACCTTG)", "values": [{"measurement": "recombinant barcode read abundance (log10)", "value": 0.143}]}
{"sequence": "ATAGGTTCTTGGGTTCTAACCTGTTGCCT (site AAAGGTTCTAG)", "values": [{"measurement": "recombinant barcode read abundance (log10)", "value": 0.0456}]}
{"sequence": "ATAGGTTCTTGGGTTCTAACCTGTTGCCT (site ACAGGTTCTAG)", "values": [{"measurement": "recombinant barcode read abundance (log10)", "value": 0.0769}]}
{"sequence": "ATAGGTTCTTGGGTTCTAACCTGTTGCCT (site AGAGGTTCTAG)", "values": [{"measurement": "recombinant barcode read abundance (log10)", "value": 0.0854}]}
{"sequence": "ATAGGTTCTTGGGTTCTAACCTGTTGCCT (site ATAGGTTCTAG)", "values": [{"measurement": "recombinant barcode read abundance (log10)", "value": 1.49}]}
{"sequence": "ATATGGACTTGGGTTCTAACCTGTTGCTA (site ATAAGGACTTA)", "values": [{"measurement": "recombinant barcode read abundance (log10)", "value": 0.65}]}
{"sequence": "ATATGGACTTGGGTTCTAACCTGTTGCTA (site ATACGGACTTA)", "values": [{"measurement": "recombinant barcode read abundance (log10)", "value": 1.34}]}
{"sequence": "ATATGGACTTGGGTTCTAACCTGTTGCTA (site ATAGGGACTTA)", "values": [{"measurement": "recombinant barcode read abundance (log10)", "value": 0.159}]}
{"sequence": "ATATGGACTTGGGTTCTAACCTGTTGCTA (site ATATGGACTTA)", "values": [{"measurement": "recombinant barcode read abundance (log10)", "value": 1.62}]}
{"sequence": "ATATGGGCTTGGGTTCTAACCTGTTGCCG (site ATATGAGCTCG)", "values": [{"measurement": "recombinant barcode read abundance (log10)", "value": 0.369}]}
{"sequence": "ATATGGGCTTGGGTTCTAACCTGTTGCCG (site ATATGCGCTCG)", "values": [{"measurement": "recombinant barcode read abundance (log10)", "value": 0.0627}]}
{"sequence": "ATATGGGCTTGGGTTCTAACCTGTTGCCG (site ATATGGGCTCG)", "values": [{"measurement": "recombinant barcode read abundance (log10)", "value": 1.52}]}
{"sequence": "ATATGGGCTTGGGTTCTAACCTGTTGCCG (site ATATGTGCTCG)", "values": [{"measurement": "recombinant barcode read abundance (log10)", "value": 0.1}]}
{"sequence": "ATATTGCCTTGGGTTCTAACCTGTTGCCT (site ATATTGCCTAG)", "values": [{"measurement": "recombinant barcode read abundance (log10)", "value": 1.67}]}
{"sequence": "ATATTGCCTTGGGTTCTAACCTGTTGCCT (site ATATTGTCTTG)", "values": [{"measurement": "recombinant barcode read abundance (log10)", "value": 0.0732}]}
{"sequence": "ATATTTCCTTGGGTTCTAACCTGTTGCCT (site AAATTTCCTAG)", "values": [{"measurement": "recombinant barcode read abundance (log10)", "value": 0.0146}]}
{"sequence": "ATATTTCCTTGGGTTCTAACCTGTTGCCT (site ACATTTCCTAG)", "values": [{"measurement": "recombinant barcode read abundance (log10)", "value": 0.0246}]}
{"sequence": "ATATTTCCTTGGGTTCTAACCTGTTGCCT (site AGATTTCCTAG)", "values": [{"measurement": "recombinant barcode read abundance (log10)", "value": 0.163}]}
{"sequence": "ATATTTCCTTGGGTTCTAACCTGTTGCCT (site ATATTTCCTAG)", "values": [{"measurement": "recombinant barcode read abundance (log10)", "value": 0.785}]}
